Test results taken from ChEMBL document CHEMBL1153245, “A profile of the in vitro anti-tumor activity of imidazolium-based ionic liquids” (2010).

What was measured:
Format in all cases: functional
[1] = tested on: ACHN; test: Anticancer activity against human ACHN cells assessed cell growth at 10 uM after 48 hrs by sulforhodamine B assay relative to control
[2] = tested on: CAKI-1; test: Anticancer activity against human Caki1 cells assessed cell growth at 10 uM after 48 hrs by sulforhodamine B assay relative to control
[3] = tested on: RXF 393; test: Anticancer activity against human RXF393 cells assessed cell growth at 10 uM after 48 hrs by sulforhodamine B assay relative to control
[4] = tested on: SN12C; test: Anticancer activity against human SN12C cells assessed cell growth at 10 uM after 48 hrs by sulforhodamine B assay relative to control
[5] = tested on: UO-31; test: Anticancer activity against human UO31 cells assessed cell growth at 10 uM after 48 hrs by sulforhodamine B assay relative to control
[6] = tested on: PC-3; test: Anticancer activity against human PC3 cells assessed cell growth at 10 uM after 48 hrs by sulforhodamine B assay relative to control
[7] = tested on: DU-145; test: Anticancer activity against human DU145 cells assessed cell growth at 10 uM after 48 hrs by sulforhodamine B assay relative to control
[8] = tested on: NCI/ADR-RES; test: Anticancer activity against human NCI/ADR-RES cells assessed cell growth at 10 uM after 48 hrs by sulforhodamine B assay relative to control
[9] = tested on: MDA-MB-231; test: Anticancer activity against human MDA-MB-231 cells assessed cell growth at 10 uM after 48 hrs by sulforhodamine B assay relative to control
[10] = tested on: BT-549; test: Anticancer activity against human BT549 cells assessed cell growth at 10 uM after 48 hrs by sulforhodamine B assay relative to control
[11] = tested on: MDA-MB-468; test: Anticancer activity against human MDA-MB-468 cells assessed cell growth at 10 uM after 48 hrs by sulforhodamine B assay relative to control
[12] = tested on: K562; test: Anticancer activity against human K562 cells assessed cell growth at 10 uM after 48 hrs by sulforhodamine B assay relative to control
[13] = tested on: MOLT-4; test: Anticancer activity against human MOLT4 cells assessed cell growth at 10 uM after 48 hrs by sulforhodamine B assay relative to control
[14] = Anticancer activity against human RPMI8266 cells assessed cell growth at 10 uM after 48 hrs by sulforhodamine B assay relative to control
[15] = tested on: SR; test: Anticancer activity against human SR cells assessed cell growth at 10 uM after 48 hrs by sulforhodamine B assay relative to control
[16] = tested on: A549; test: Anticancer activity against human A549 cells assessed cell growth at 10 uM after 48 hrs by sulforhodamine B assay relative to control
[17] = tested on: HOP-62; test: Anticancer activity against human HOP62 cells assessed cell growth at 10 uM after 48 hrs by sulforhodamine B assay relative to control
[18] = tested on: HOP-92; test: Anticancer activity against human HOP92 cells assessed cell growth at 10 uM after 48 hrs by sulforhodamine B assay relative to control
[19] = tested on: NCI-H226; test: Anticancer activity against human NCI-H226 cells assessed cell growth at 10 uM after 48 hrs by sulforhodamine B assay relative to control
[20] = tested on: NCI-H23; test: Anticancer activity against human NCI-H23 cells assessed cell growth at 10 uM after 48 hrs by sulforhodamine B assay relative to control
[21] = tested on: NCI-H322M; test: Anticancer activity against human NCI-H322M cells assessed cell growth at 10 uM after 48 hrs by sulforhodamine B assay relative to control
[22] = tested on: NCI-H460; test: Anticancer activity against human NCI-H460 cells assessed cell growth at 10 uM after 48 hrs by sulforhodamine B assay relative to control
[23] = tested on: NCI-H522; test: Anticancer activity against human NCI-H522 cells assessed cell growth at 10 uM after 48 hrs by sulforhodamine B assay relative to control
[24] = tested on: COLO 205; test: Anticancer activity against human COLO205 cells assessed cell growth at 10 uM after 48 hrs by sulforhodamine B assay relative to control
[25] = tested on: HCC 2998; test: Anticancer activity against human HCC2998 cells assessed cell growth at 10 uM after 48 hrs by sulforhodamine B assay relative to control
[26] = tested on: HT-29; test: Anticancer activity against human HT-29 cells assessed cell growth at 10 uM after 48 hrs by sulforhodamine B assay relative to control
[27] = tested on: SF-539; test: Anticancer activity against human SF539 cells assessed cell growth at 10 uM after 48 hrs by sulforhodamine B assay relative to control
[28] = tested on: SNB-19; test: Anticancer activity against human SNB19 cells assessed cell growth at 10 uM after 48 hrs by sulforhodamine B assay relative to control
[29] = tested on: SNB-75; test: Anticancer activity against human SNB75 cells assessed cell growth at 10 uM after 48 hrs by sulforhodamine B assay relative to control
[30] = tested on: U-251; test: Anticancer activity against human U251 cells assessed cell growth at 10 uM after 48 hrs by sulforhodamine B assay relative to control
[31] = tested on: LOX IMVI; test: Anticancer activity against human LOXIMVI cells assessed cell growth at 10 uM after 48 hrs by sulforhodamine B assay relative to control
[32] = tested on: Malme-3M; test: Anticancer activity against human MALME-3M cells assessed cell growth at 10 uM after 48 hrs by sulforhodamine B assay relative to control
[33] = tested on: M14; test: Anticancer activity against human M14 cells assessed cell growth at 10 uM after 48 hrs by sulforhodamine B assay relative to control
[34] = tested on: SK-MEL-2; test: Anticancer activity against human SK-MEL-2 cells assessed cell growth at 10 uM after 48 hrs by sulforhodamine B assay relative to control
[35] = tested on: SK-MEL-28; test: Anticancer activity against human SK-MEL-28 cells assessed cell growth at 10 uM after 48 hrs by sulforhodamine B assay relative to control
[36] = tested on: SK-MEL-5; test: Anticancer activity against human SK-MEL-5 cells assessed cell growth at 10 uM after 48 hrs by sulforhodamine B assay relative to control
[37] = tested on: UACC-257; test: Anticancer activity against human UACC257 cells assessed cell growth at 10 uM after 48 hrs by sulforhodamine B assay relative to control
[38] = tested on: UACC-62; test: Anticancer activity against human UACC62 cells assessed cell growth at 10 uM after 48 hrs by sulforhodamine B assay relative to control
[39] = tested on: IGROV-1; test: Anticancer activity against human IGROV1 cells assessed cell growth at 10 uM after 48 hrs by sulforhodamine B assay relative to control
[40] = tested on: OVCAR-3; test: Anticancer activity against human OVCAR-3 cells assessed cell growth at 10 uM after 48 hrs by sulforhodamine B assay relative to control
[41] = tested on: OVCAR-4; test: Anticancer activity against human OVCAR4 cells assessed cell growth at 10 uM after 48 hrs by sulforhodamine B assay relative to control
[42] = tested on: HL-60(TB); test: Anticancer activity against human HL-60(TB) cells assessed cell growth at 10 uM after 48 hrs by sulforhodamine B assay relative to control
[43] = tested on: CCRF-CEM; test: Anticancer activity against human CCRF-CEM cells assessed cell growth at 10 uM after 48 hrs by sulforhodamine B assay relative to control

CCCCCCCCCCCCCCCCCC[n+]1ccn(C)c1.[Cl-]
Activity [1]: -12.35%
Activity [2]: -67.34%
Activity [3]: -28.27%
Activity [4]: -52.54%
Activity [5]: -61.43%
Activity [6]: -54.01%
Activity [7]: -7.74%
Activity [8]: 20.86%
Activity [9]: -66.25%
Activity [10]: -55.64%
Activity [11]: -42.33%
Activity [12]: 28.31%
Activity [13]: 16.78%
Activity [14]: 93.78%
Activity [15]: 4.33%
Activity [16]: -15.21%
Activity [17]: -58.64%
Activity [18]: -51.3%
Activity [19]: -54.04%
Activity [20]: -48.94%
Activity [21]: 5.3%
Activity [22]: -62.94%
Activity [23]: -74.88%
Activity [24]: 1.82%
Activity [25]: -80.71%
Activity [26]: -42.14%
Activity [27]: -85.24%
Activity [28]: -47.53%
Activity [29]: -74.36%
Activity [30]: -0.67%
Activity [31]: 0.13%
Activity [32]: -62.43%
Activity [33]: -33.7%
Activity [34]: -61.28%
Activity [35]: -49.38%
Activity [36]: -81.11%
Activity [37]: -38%
Activity [38]: -70.86%
Activity [39]: -43.92%
Activity [40]: -48.71%
Activity [41]: -19.32%
Activity [42]: 3.76%
Activity [43]: 34.04%

CCCCCCCCCCCCCCCCCC[n+]1ccn(C)c1.F[P-](F)(F)(F)(F)F
Activity [1]: 5.45%
Activity [2]: -80.74%
Activity [3]: -52.84%
Activity [4]: -24.52%
Activity [5]: -29.46%
Activity [6]: -62.83%
Activity [7]: -12.17%
Activity [8]: 22.73%
Activity [9]: -32.88%
Activity [10]: -23.5%
Activity [11]: -23.16%
Activity [12]: 14.23%
Activity [13]: 2.98%
Activity [14]: 19.57%
Activity [15]: 13.95%
Activity [16]: -24.42%
Activity [17]: -56%
Activity [18]: -47.8%
Activity [19]: -34.72%
Activity [20]: -49.37%
Activity [21]: 11.62%
Activity [22]: -67.11%
Activity [23]: -53.86%
Activity [24]: -27.43%
Activity [25]: -83.5%
Activity [26]: -50.31%
Activity [27]: -80.04%
Activity [28]: -67.18%
Activity [29]: -68.15%
Activity [30]: -22.42%
Activity [31]: -13.99%
Activity [32]: -46.96%
Activity [33]: -28.52%
Activity [34]: -42.48%
Activity [35]: -57.59%
Activity [36]: -85.04%
Activity [37]: -62.12%
Activity [38]: -65.74%
Activity [39]: -12.15%
Activity [40]: -57.4%
Activity [41]: -10.51%
Activity [42]: 2.58%
Activity [43]: 13.72%

CCCCCCCCCCCC[n+]1ccn(C)c1.F[B-](F)(F)F
Activity [1]: 54.07%
Activity [2]: 30.59%
Activity [3]: 22.19%
Activity [4]: 21.24%
Activity [5]: 68.16%
Activity [6]: 74.38%
Activity [7]: 7.97%
Activity [8]: 76.53%
Activity [9]: 26.48%
Activity [10]: 1.51%
Activity [11]: -43.37%
Activity [12]: 80.69%
Activity [13]: 71.98%
Activity [14]: 130.35%
Activity [15]: 100.03%
Activity [16]: 37.89%
Activity [17]: 28.7%
Activity [18]: 46.45%
Activity [19]: 37.19%
Activity [20]: 23.04%
Activity [21]: 67.4%
Activity [22]: 23.03%
Activity [23]: -10.37%
Activity [24]: 15.15%
Activity [25]: 28.68%
Activity [26]: 24.82%
Activity [27]: 35.07%
Activity [28]: 39.2%
Activity [29]: 3.39%
Activity [30]: 36.74%
Activity [31]: 35.51%
Activity [32]: 31.87%
Activity [33]: 24.71%
Activity [34]: 18.52%
Activity [35]: 62.65%
Activity [36]: -19.73%
Activity [37]: -7.74%
Activity [38]: 40.33%
Activity [39]: 1.02%
Activity [40]: 55.26%
Activity [41]: 12.68%
Activity [42]: 50.79%
Activity [43]: 96%

CCCCCCCCCCCCCCCC[n+]1ccn(C)c1.[Cl-]
Activity [1]: -0.6%
Activity [2]: -83.54%
Activity [3]: -66.19%
Activity [4]: -94.61%
Activity [5]: -85.85%
Activity [6]: -100%
Activity [7]: -69.69%
Activity [8]: 37.13%
Activity [9]: -93.87%
Activity [10]: -65.21%
Activity [11]: -78.99%
Activity [12]: 72.56%
Activity [13]: 17.19%
Activity [14]: 15.77%
Activity [15]: 15.17%
Activity [16]: -50.92%
Activity [17]: -82.71%
Activity [18]: -80.2%
Activity [19]: -60.54%
Activity [20]: -51.9%
Activity [21]: 8.28%
Activity [22]: -87.94%
Activity [23]: -87.38%
Activity [24]: -45.99%
Activity [25]: -94.43%
Activity [26]: -100%
Activity [27]: -98.59%
Activity [28]: -75.88%
Activity [29]: -98.62%
Activity [30]: -69.96%
Activity [31]: -50.37%
Activity [32]: -77.38%
Activity [33]: -73.7%
Activity [34]: -64.47%
Activity [35]: -86.22%
Activity [36]: -95.2%
Activity [37]: -61.13%
Activity [38]: -94.58%
Activity [39]: -67.13%
Activity [40]: -24.76%
Activity [41]: -54.83%
Activity [42]: 45.73%
Activity [43]: 33.57%
